These results are taken from article PMC11811597, “Phenomics‐Based Discovery of Novel Orthosteric Choline Kinase Inhibitors” (Angewandte Chemie (International Ed. in English), 2025).

This assay addresses T1, EHMT2 (G9a) (Homo sapiens, UniProt Q96KQ7).
T1 sequence (Q96KQ7 1-1210): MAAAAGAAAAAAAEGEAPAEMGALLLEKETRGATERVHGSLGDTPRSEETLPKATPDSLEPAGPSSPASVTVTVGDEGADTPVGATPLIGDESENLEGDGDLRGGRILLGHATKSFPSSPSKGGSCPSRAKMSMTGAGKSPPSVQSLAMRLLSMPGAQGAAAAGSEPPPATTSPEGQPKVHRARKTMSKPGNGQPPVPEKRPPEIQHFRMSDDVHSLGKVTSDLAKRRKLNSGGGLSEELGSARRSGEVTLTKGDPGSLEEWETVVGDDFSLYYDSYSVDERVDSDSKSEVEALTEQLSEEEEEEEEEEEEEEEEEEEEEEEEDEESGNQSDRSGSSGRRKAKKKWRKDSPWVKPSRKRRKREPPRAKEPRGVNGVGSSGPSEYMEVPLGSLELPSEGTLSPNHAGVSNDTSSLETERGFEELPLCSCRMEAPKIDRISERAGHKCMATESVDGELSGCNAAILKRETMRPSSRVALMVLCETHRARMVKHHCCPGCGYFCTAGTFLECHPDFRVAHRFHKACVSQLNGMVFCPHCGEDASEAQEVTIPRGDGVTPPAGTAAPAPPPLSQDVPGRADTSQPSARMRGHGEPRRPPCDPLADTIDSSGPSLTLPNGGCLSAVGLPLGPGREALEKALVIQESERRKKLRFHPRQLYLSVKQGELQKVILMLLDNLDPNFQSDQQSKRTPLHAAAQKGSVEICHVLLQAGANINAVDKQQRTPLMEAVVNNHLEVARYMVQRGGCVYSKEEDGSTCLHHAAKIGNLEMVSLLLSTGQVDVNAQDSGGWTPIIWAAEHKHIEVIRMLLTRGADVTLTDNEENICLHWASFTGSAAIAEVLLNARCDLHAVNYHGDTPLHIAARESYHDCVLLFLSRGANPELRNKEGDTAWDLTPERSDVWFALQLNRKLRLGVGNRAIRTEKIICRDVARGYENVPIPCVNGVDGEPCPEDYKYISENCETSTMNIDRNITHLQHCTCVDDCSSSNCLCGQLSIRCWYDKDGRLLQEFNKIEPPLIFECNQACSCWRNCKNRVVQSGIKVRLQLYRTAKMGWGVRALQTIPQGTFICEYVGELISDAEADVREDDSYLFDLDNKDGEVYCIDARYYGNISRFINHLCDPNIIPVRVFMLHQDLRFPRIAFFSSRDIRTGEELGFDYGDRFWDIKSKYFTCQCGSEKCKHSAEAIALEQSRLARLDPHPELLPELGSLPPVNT
The assay is described as follows: Competitive affinity-based chemoproteomics (UNC0965 matrix), MCF7 lysate. The class given is binding. Also noted: endogenous in cells; host or cells: MCF7 whole cell lysate. Conditions: MCF7 lysates, 20 μM competitor. How it is done: A-366 and UNC0638 were purchased from Tocris. ARIAD and V-11-07-11 were purchased from Wuxi Apptec. UNC0737 and UNC0965 were synthesised as previously described.[1] Hemicholinium-3 and pyruvate kinase/lactic dehydrogenase enzymes were purchased from Sigma Aldrich. Aqueous and organic solvents were MS-grade and acquired by Sigma Aldrich unless stated otherwise.
MDA-MB-231, MCF7 and HEK293 cells were cultured in DMEM (Gibco, #11965092) supplemented with 10% FBS. K562 were cultured in IMDM (Gibco, #12440053) supplemented with 10% FBS. HepG2 were cultured in MEM (Gibco, #11095080) supplemented with 10 % FBS. […]
cultured in McCoy’s 5A (Sigma, M8403) supplemented with 10 % FBS and 1x GlutaMAX (Gibco, #35050061). Cells were maintained at 37 °C in a humidified 5% CO2 atmosphere. Peripheral blood mononuclear cells (PBMC) were isolated from healthy blood donors by density centrifugation. […]
Cell Titer-Glo® reagent was added to each well and total luminescence readings were performed within 15 min using the PHERAstar FSX (BMG Labtech). […]
Digested samples were analysed by nano-UPLC–MS/MS using a Dionex Ultimate 3000 nano UPLC fitted with an EASY spray column (75 μm × 500 mm, 2 μm particle size, Thermo Scientific), coupled to an Orbitrap Q Exactive instrument. […]

Turning to `COc1cc2c(NC3CCN(C(C)C)CC3)nc(C3CCCCC3)nc2cc1OCCCN1CCCC1` [UNC0638], the “competition for EHMT2 (G9a) binding to affinity matrix” value was “strong enrichment and competition”.

For `COc1cc2c(N(C)C3CCN(C(C)C)CC3)nc(C3CCCCC3)nc2cc1OCCCN1CCCC1` [UNC0737], the “competition for EHMT2 (G9a) binding to affinity matrix” value is “did not ablate binding”.
